How the values were obtained:
Assay type in all cases: cell-based, human
NFκB-dependent promoter = experiment: Transient transfection of pNFkB-Luc into HT1080 p21-9 cells, firefly luciferase; conditions: different concentrations of IPTG
Description: To determine if IPTG-inducible p21 expression in HT1080 p21-9 cells stimulates the transcriptional activity of NFκB, we have used transient transfection assays to investigate the effect of p21 induction on luciferase expression from the plasmid pNFkB-Luc, commercially available from Stratagene. This plasmid expresses firefly luciferase from an artificial promoter containing five tandemly repeated NFκB consensus sequences. We have also generated by PCR a version of the same promoter that contains only one NFκB consensus sequence using primers identified as SEQ ID Nos. 80 and 83. The sequences of these two promoters are identified as SEQ ID NOs. 78 and 79.
The ability of p21 to induce these promoters was tested by transient transfection assays, as described in Example 8, using different concentrations of IPTG that induce p21 to different levels.
This plasmid is referred to below as IKK. To determine the effect of p300/CBP inhibition on luciferase expression from pNFkB-Luc, the latter plasmid was similarly mixed in another assay with a vector expressing a truncated gene for adenoviral E1A protein with a C-terminal deletion {ΔCR2 (120-140)}. […] The E1AΔCR2 and E1AΔN/ΔCR2 constructs were provided by Dr. V. Ogryzko (NICHHD, NIH). […] The firefly luciferase activity was measured and normalized to Renilla luciferase activity measured (in the absence of IPTG) in each transfected sample.

NK4 promoter = experiment: Luciferase assay in LuNK4p21 cell line (NK4 promoter-luciferase, IPTG-inducible p21)
Method: This assay was performed as follows. Cells were plated at a density of 40,000 cells/well in 12 well plates in 1 mL of media containing penicillin/streptomycin, glutamine and 10% fetal calf serum (FCS). After attachment, cells were treated with 50 μM IPTG or left untreated for different periods of time. Luciferase activity was then measured as described in Example 8 above. An additional aliquot was removed from the cell lysate to measure protein concentration using the Bio-Rad protein assay kit (Bradford assay). Luciferase activity for each sample was normalized to protein content and expressed as luciferase activity/μg protein.
Luciferase assays were performed substantially as described in Example 9. Luciferase activity was measured after 16 hrs of incubation with or without 50 μM IPTG, followed by an additional 20 hr treatment in the presence or in the absence of 20 mM sodium salicylate, 1 mM sulindac, or 10 mM aspirin. […] NSAID concentrations were based on the pharmacologic concentrations of these agents in the serum of patients required for their anti-inflammatory properties (Yin et al., 1998, ibid.).

HS 15.T cells = experiment: Mitogenic activity assay, 3H-thymidine incorporation; conditions: 60 hr in media then 24 hrs 3H-thymidine
Method: To verify the induction of secreted mitogenic and anti-apoptotic factors by p21, conditioned media from IPTG-treated HT1080 p21-9 cells were tested to investigate whether they would have an effect on cell growth and apoptosis. In these experiments, conditioned media were prepared by plating 10^6 HT1080 p21-9 cells per 15 cm plate in the presence of DMEM/10% FCS. The next day, IPTG was added to a final concentration of 50 μM, and this media was replaced three days later with DMEM supplemented with 0.5% FCS and 50 μM IPTG. Two days later (days 3-5 of IPTG treatment), this conditioned media was collected and stored at 4° C. up to 15 days before use. Control media were prepared by adding IPTG-free DMEM/0.5% FCS to untreated cells grown to the same density as IPTG-treated cells and collecting the media two days thereafter.
The slow-growing human fibrosarcoma cell line HS 15.T was used to detect mitogenic activity in these conditioned media. For mitogenic activity assays, both types of conditioned media, as well as fresh media and 1:1 mixtures of conditioned media and fresh media were used to test mitogenic activity. In these experiments, the conditioned media were supplemented with 1% or 2% FCS. […] Cells were then collected and their ^3H-thymidine incorporation determined as described by Mosca et al. (1992, Mol. Cell. Biol. 12: 4375-4383).

With `CC(C)S[C@@H]1O[C@H](CO)[C@H](O)[C@H](O)[C@H]1O` [IPTG, isopropyl-β-thiogalactoside] the “induction of promoters containing five or one NFκB site” value (NFκB-dependent promoter) was “dose-dependent induction”, the “treatment period at which most of the induction is achieved” value (NK4 promoter; 50 μM IPTG) was 17 h and the “increase of luciferase expression” value (NK4 promoter; 50 μM IPTG, absence of NSAID) was 3-4 fold. The “IPTG concentration at which most of the induction is achieved” value (NK4 promoter; 24 hrs of IPTG treatment) was 5 µM, the “increase in luciferase levels in IPTG-treated cells” value (NK4 promoter; LuNK4p21 cell line) was “approximately 3 fold” and the 3H-thymidine incorporation (HS 15.T cells) was “no effect”.

— patent US20030157704A1, “Reagents and methods for identifying and modulating expression of genes regulated by CDK inhibitors” (priority 2001, published 2003)
